From PMC7490411 (Signal Transduction and Targeted Therapy, 2020)

Legend:
BTK = target: T1, BTK (Homo sapiens, UniProt Q06187); assay: target-engagement assay with biotinylated probe CHMFL-BTK-85B in REC-1 cell; format: binding; settings: 2 h, 1 μM
T1 construct: purchased Invitrogen (Carlsbad, CA, USA)
Method: Cell lysates from REC-1 cells were treated with different concentrations of covalent inhibitor CHMFL-BTK-85 on ice for 2 hours. 1 µM biotinylated covalent probe (CHMFL-BTK-85B) was then added and lysates were incubated for another 2 hours. Uninhibited BTK was then captured by adding 50 µl Streptavidin agarose resin suspensions (Pierce) followed by an incubation for 1 hour. The resin was then spun down, washed briefly with 1X PBS buffer, and then resuspended in protein sample buffer for Western blot analysis.

[1] = drug enrichment in the tumor; format: in vivo, mouse; settings: 100 mg/kg
ASK2 = assay: KINOMEscan; format: binding; settings: 1000 nM
BRSK2 = assay: KINOMEscan; format: binding; settings: 1000 nM
CAMK1G = assay: KINOMEscan; format: binding; settings: 1000 nM
CAMK2G = assay: KINOMEscan; format: binding; settings: 1000 nM
CDK7 = assay: KINOMEscan; format: binding; settings: 1000 nM
CDKL1 = assay: KINOMEscan; format: binding; settings: 1000 nM
CDKL2 = assay: KINOMEscan; format: binding; settings: 1000 nM
CTK = assay: KINOMEscan; format: binding; settings: 1000 nM
DAPK2 = assay: KINOMEscan; format: binding; settings: 1000 nM
EGFR(S752-I759del) = assay: KINOMEscan; format: binding; settings: 1000 nM
EGFR(T790M) = assay: KINOMEscan; format: binding; settings: 1000 nM
EIF2AK1 = assay: KINOMEscan; format: binding; settings: 1000 nM
EPHA2 = assay: KINOMEscan; format: binding; settings: 1000 nM
ERK1 = assay: KINOMEscan; format: binding; settings: 1000 nM
FGR = assay: KINOMEscan; format: binding; settings: 1000 nM
FLT3(D835H) = assay: KINOMEscan; format: binding; settings: 1000 nM
FLT3(R834Q) = assay: KINOMEscan; format: binding; settings: 1000 nM
HIPK3 = assay: KINOMEscan; format: binding; settings: 1000 nM
IRAK3 = assay: KINOMEscan; format: binding; settings: 1000 nM
ITK = target: T2, ITK (Homo sapiens, UniProt Q08881); assay: KINOMEscan; format: binding; settings: 1000 nM, read-out: Percent Control
T2 construct: purchased Invitrogen (Carlsbad, CA, USA)
T2 sequence (Q08881 1-620): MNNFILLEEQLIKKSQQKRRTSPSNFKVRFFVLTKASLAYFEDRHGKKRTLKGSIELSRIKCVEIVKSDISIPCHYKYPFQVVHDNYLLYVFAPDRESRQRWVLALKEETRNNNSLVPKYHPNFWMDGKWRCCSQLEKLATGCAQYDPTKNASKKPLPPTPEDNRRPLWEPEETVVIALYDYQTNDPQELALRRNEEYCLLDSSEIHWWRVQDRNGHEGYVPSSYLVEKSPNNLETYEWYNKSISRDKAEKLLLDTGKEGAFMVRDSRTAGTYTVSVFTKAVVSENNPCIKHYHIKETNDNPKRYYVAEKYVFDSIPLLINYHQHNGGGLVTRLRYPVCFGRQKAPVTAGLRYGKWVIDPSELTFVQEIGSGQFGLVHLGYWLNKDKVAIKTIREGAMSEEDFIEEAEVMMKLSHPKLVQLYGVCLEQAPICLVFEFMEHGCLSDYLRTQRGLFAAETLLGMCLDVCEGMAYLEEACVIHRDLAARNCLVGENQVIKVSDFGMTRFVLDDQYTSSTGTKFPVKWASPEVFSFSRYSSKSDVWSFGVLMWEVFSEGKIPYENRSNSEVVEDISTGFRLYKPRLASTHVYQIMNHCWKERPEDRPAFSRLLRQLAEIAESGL

JNK3 = assay: KINOMEscan; format: binding; settings: 1000 nM
KIT(A829P) = assay: KINOMEscan; format: binding; settings: 1000 nM
MAK = assay: KINOMEscan; format: binding; settings: 1000 nM
MAST1 = assay: KINOMEscan; format: binding; settings: 1000 nM
MKNK2 = assay: KINOMEscan; format: binding; settings: 1000 nM
MRCKA = assay: KINOMEscan; format: binding; settings: 1000 nM
NDR2 = assay: KINOMEscan; format: binding; settings: 1000 nM
NIK = assay: KINOMEscan; format: binding; settings: 1000 nM
NIM1 = assay: KINOMEscan; format: binding; settings: 1000 nM
PAK6 = assay: KINOMEscan; format: binding; settings: 1000 nM
PCTK1 = assay: KINOMEscan; format: binding; settings: 1000 nM
PIK3CA(E542K) = assay: KINOMEscan; format: binding; settings: 1000 nM
PLK1 = assay: KINOMEscan; format: binding; settings: 1000 nM
PLK2 = assay: KINOMEscan; format: binding; settings: 1000 nM
PLK4 = assay: KINOMEscan; format: binding; settings: 1000 nM
PYK2 = assay: KINOMEscan; format: binding; settings: 1000 nM
RET(V804L) = assay: KINOMEscan; format: binding; settings: 1000 nM
ROCK1 = assay: KINOMEscan; format: binding; settings: 1000 nM
TAK1 = assay: KINOMEscan; format: binding; settings: 1000 nM
TAOK3 = assay: KINOMEscan; format: binding; settings: 1000 nM
TESK1 = assay: KINOMEscan; format: binding; settings: 1000 nM
YANK3 = assay: KINOMEscan; format: binding; settings: 1000 nM

T1 sequence (Q06187 whole entry): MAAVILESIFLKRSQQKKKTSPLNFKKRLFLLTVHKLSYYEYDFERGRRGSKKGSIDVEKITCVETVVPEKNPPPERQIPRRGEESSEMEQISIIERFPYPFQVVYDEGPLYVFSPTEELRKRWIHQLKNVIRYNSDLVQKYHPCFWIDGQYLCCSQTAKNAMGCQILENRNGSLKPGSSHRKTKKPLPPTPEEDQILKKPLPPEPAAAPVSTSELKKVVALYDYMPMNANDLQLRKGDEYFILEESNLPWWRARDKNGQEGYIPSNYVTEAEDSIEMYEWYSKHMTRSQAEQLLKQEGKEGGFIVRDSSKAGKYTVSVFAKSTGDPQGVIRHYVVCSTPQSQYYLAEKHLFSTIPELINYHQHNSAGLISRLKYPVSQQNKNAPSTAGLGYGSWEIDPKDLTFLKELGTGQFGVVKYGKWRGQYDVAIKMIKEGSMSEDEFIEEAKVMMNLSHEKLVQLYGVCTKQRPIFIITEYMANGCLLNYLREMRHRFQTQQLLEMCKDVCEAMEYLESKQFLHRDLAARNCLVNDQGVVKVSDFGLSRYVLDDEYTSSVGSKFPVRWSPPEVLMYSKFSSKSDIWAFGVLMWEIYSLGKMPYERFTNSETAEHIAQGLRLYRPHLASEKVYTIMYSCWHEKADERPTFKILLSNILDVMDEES

## C=CC(=O)Nc1cc(Nc2cc(-c3cccc(NC(=O)c4cc5c(s4)CCCC5)c3C)cn(C)c2=O)ccc1N1CCN(CC)CC1 [CHMFL-BTK-85]
BTK
  covalent labelling of BTK in competition with CHMFL-BTK-85B: almost completely covalently label all of the available BTK
[1]
  concentration in the tumor: 2370 nM
ASK2
  Percent Control: 100%
BRSK2
  Percent Control: 99%
CAMK1G
  Percent Control: 94%
CAMK2G
  Percent Control: 100%
CDK7
  Percent Control: 96%
CDKL1
  Percent Control: 77%
CDKL2
  Percent Control: 98%
CTK
  Percent Control: 99%
DAPK2
  Percent Control: 100%
EGFR(S752-I759del)
  Percent Control: 90%
EGFR(T790M)
  Percent Control: 98%
EIF2AK1
  Percent Control: 100%
EPHA2
  Percent Control: 87%
ERK1
  Percent Control: 93%
FGR
  Percent Control: 20%
FLT3(D835H)
  Percent Control: 100%
FLT3(R834Q)
  Percent Control: 100%
HIPK3
  Percent Control: 100%
IRAK3
  Percent Control: 100%
ITK
  remaining binding at 1 µM: 77%
JNK3
  Percent Control: 98%
KIT(A829P)
  Percent Control: 92%
MAK
  Percent Control: 89%
MAST1
  Percent Control: 100%
MKNK2
  Percent Control: 100%
MRCKA
  Percent Control: 100%
NDR2
  Percent Control: 34%
NIK
  Percent Control: 100%
NIM1
  Percent Control: 100%
PAK6
  Percent Control: 100%
PCTK1
  Percent Control: 100%
PIK3CA(E542K)
  Percent Control: 99%
PLK1
  Percent Control: 100%
PLK2
  Percent Control: 100%
PLK4
  Percent Control: 97%
PYK2
  Percent Control: 100%
RET(V804L)
  Percent Control: 76%
ROCK1
  Percent Control: 100%
TAK1
  Percent Control: 100%
TAOK3
  Percent Control: 100%
TESK1
  Percent Control: 96%
YANK3
  Percent Control: 89%
